Entries after “also recorded” stand apart in the source; their conditions may differ.
Tests used:
STOP+/− mice [1] = experiment: Open field locomotor activity; format: in vivo, mouse
Experimental: The NAP vehicle solution (termed DD), included the following ingredients (per milliliter): 7.5 mg of NaCl, 1.7 mg of citric acid monohydrate, 3 mg of disodium phosphate dihydrate, and 0.2 mg of benzalkonium chloride solution (50%) (Alcalay R N et al., Neurosci Lett, 361(1-3): 128-131 (2004)). NAP or vehicle solution (DD) was administered to mice hand-held in a semisupine position with nostrils facing the investigator. A pipette tip was used to administer 2.5 μl/nostril. The mouse was hand-held until the solution was totally absorbed (10 s). […] STOP+/− male mice (5 months old, n=4) received daily doses of 10 mg/kg intraperitoneal injection (IP) of clozapine (5 days a week), for the duration of the experiment (7 weeks). A control STOP+/− male mice group (5 month old, n=3) were injected daily with saline. NAP treatment included daily (5 days a week) intranasal administrations (0.5 μg/5 μl/mouse/day) for 7-10 weeks. For intranasal administration, the peptide was dissolved in the vehicle solution (termed DD) described above. Each experimental group included 10-12 mice, 4-12 month-old; mean age 6 months). […]
(§1) Locomotor activity was measured in 5 consecutive sessions, 3 minutes each and the mean path length in cm of each mouse in the 3 minute sessions per the entire 15 minute period of observation in open field (80 cm diameter) was determined. […]

STOP+/− mice [2] = experiment: Object recognition and discrimination test; format: in vivo, mouse
Experimental: The NAP vehicle solution (termed DD), included the following ingredients (per milliliter): 7.5 mg of NaCl, 1.7 mg of citric acid monohydrate, 3 mg of disodium phosphate dihydrate, and 0.2 mg of benzalkonium chloride solution (50%) (Alcalay R N et al., Neurosci Lett, 361(1-3): 128-131 (2004)). NAP or vehicle solution (DD) was administered to mice hand-held in a semisupine position with nostrils facing the investigator. A pipette tip was used to administer 2.5 μl/nostril. The mouse was hand-held until the solution was totally absorbed (10 s). […]
The test is based on visual discrimination between two different objects in an arena of 30 cm×40 cm. […] One hour after the daily intranasal NAP treatment, or clozapine injection, each male mouse was exposed to two identical objects for 5 minutes and the time spent sniffing/touching each object was measured (first daily session). Three hours later, the mice were exposed to one familiar and one novel object for 3 minutes and the time spent sniffing/touching each object was measured again (second session, measuring visual memory). The data was analyzed using two different methods. The first method measured the time spent exploring an object, novel or familiar, and compared the two. The second method evaluated the discrimination capacity of the mice between the novel object and the familiar object using the following formula. […]

STOP+/− mice [3] = experiment: Social recognition test; format: in vivo; settings: 8-month-old STOP+/− mice; NAP 0.5 microgram/mouse/day, clozapine 3 mg/kg/day, FIG. 16
Experimental: In the social recognition test, 8-month-old mice (STOP+/−) were habituated for 20 minutes in a cage and then exposed to a new juvenile mouse (1.5-month old) for one minute—followed by a 30-minute interval and another 1 minute exposure four times (familiarizing the test subject with the juvenile mouse). The fifth exposure session included a novel juvenile mouse. Time spent interacting with the juvenile mouse was recorded.

STOP+/+ mice = experiment: Behavioral tests in control STOP+/+ mice; format: in vivo, mouse
From the text: For the initial comparisons of STOP+/− mice to STOP+/+ mice (littermates), each experimental group included 10-12 mice, 4-12 month-old; mean age 6 months, there were no highly significant differences between the tested ages in terms of the behavioral outcome). The STOP+/+ and STOP+/− male mice received daily (5 days a week) NAP nasal application vehicle as follows below for the duration of 7-10 weeks.
The NAP vehicle solution (termed DD), included the following ingredients (per milliliter): 7.5 mg of NaCl, 1.7 mg of citric acid monohydrate, 3 mg of disodium phosphate dihydrate, and 0.2 mg of benzalkonium chloride solution (50%) (Alcalay R N et al., Neurosci Lett, 361(1-3): 128-131 (2004)). […]
as §1
The test is based on visual discrimination between two different objects in an arena of 30 cm×40 cm. […] One hour after the daily intranasal NAP treatment, or clozapine injection, each male mouse was exposed to two identical objects for 5 minutes and the time spent sniffing/touching each object was measured (first daily session). […] The data was analyzed using two different methods. […]

ischemic injury = settings: after ischemic injury; cited from earlier work
[4] = system: closed head injury in mice; settings: cited from earlier work
[5] = system: model of fetal alcohol syndrome; settings: in vivo, ip; cited from earlier work
[6] = system: TNF-α, interleukin-16 (IL-16), and IL-12 in macrophages; settings: cited from earlier work

SMILES: CC[C@H](C)[C@H](NC(=O)[C@H](CO)NC(=O)[C@@H](NC(=O)[C@@H]1CCCN1C(=O)[C@H](C)NC(=O)[C@@H](N)CC(N)=O)C(C)C)C(=O)N1CCC[C@H]1C(=O)N[C@@H](CCC(N)=O)C(=O)O [NAP]
- hyper-locomotion (path length) in open field (STOP+/− mice [1]; Example 3, STOP+/− male mice, NAP intranasal 0.5 μg/mouse/day or clozapine 10 mg/kg IP, FIG. 8): significantly decreased the hyper-locomotion; also recorded: significantly reduced the path length
- open field activity (STOP+/− mice [1]; Example 4, STOP+/− mice, NAP intranasal 0.5 microgram/mouse/day, clozapine injection 3 mg/kg/day, FIG. 11): also reduced the activity
- object recognition / discrimination of novel object (STOP+/− mice [2]; Example 3, STOP+/− male mice, 3 h after first session, NAP intranasal 0.5 μg/mouse/day or clozapine 10 mg/kg IP, FIG. 9): ameliorated completely the cognitive impairment; also recorded: significantly beneficial
- object recognition, discrimination capacity D2 (memory scores) (STOP+/− mice [2]; Example 4, STOP+/− mice, NAP 0.5 microgram/mouse/day, clozapine 3 mg/kg/day, versus pooled controls, FIG. 12): effective to increase memory scores
- social recognition behavior (STOP+/− mice [3]): partially ameliorated
- open field locomotor activity in control mice (STOP+/+ mice; STOP+/+ mice, NAP intranasal 0.5 μg/mouse/day): trend; also recorded: non-significant effect
- cognitive performance of control mice (STOP+/+ mice; control mice treated with NAP): did not show improvement in their cognitive performance
- infarct volume and motor function deficits (ischemic injury): reduced infarct volume and motor function deficits
- damage caused by closed head injury [4]: reduced damage
- fetal death after intraperitoneal injection of alcohol [5]: inhibited
- key inflammatory cytokines TNF-α, IL-16 and IL-12 [6]: downregulates

— patent US20120010148A1, “COMBINATION THERAPIES USING NAP” (ALLON THERAPEUTICS INC., priority 2008, published 2012)
